Measurements: patent publication US10344060B2 (priority 2013, dated 2019)
“And” between values parts separate entries of the source, which are not always exact repeats. Identical values can stand only once.

Key:
[1] = target: T1, hNav1.7 (Homo sapiens, UniProt Q15858); test: cell-based; assay type: cell-based; details: ratio of PX tonic IC50 values; Table 11
[2] = target: T1, hNav1.7; test: cell-based; details: ratio of IonWorks Quattro IC50 values

T1 sequence (Q15858 whole entry): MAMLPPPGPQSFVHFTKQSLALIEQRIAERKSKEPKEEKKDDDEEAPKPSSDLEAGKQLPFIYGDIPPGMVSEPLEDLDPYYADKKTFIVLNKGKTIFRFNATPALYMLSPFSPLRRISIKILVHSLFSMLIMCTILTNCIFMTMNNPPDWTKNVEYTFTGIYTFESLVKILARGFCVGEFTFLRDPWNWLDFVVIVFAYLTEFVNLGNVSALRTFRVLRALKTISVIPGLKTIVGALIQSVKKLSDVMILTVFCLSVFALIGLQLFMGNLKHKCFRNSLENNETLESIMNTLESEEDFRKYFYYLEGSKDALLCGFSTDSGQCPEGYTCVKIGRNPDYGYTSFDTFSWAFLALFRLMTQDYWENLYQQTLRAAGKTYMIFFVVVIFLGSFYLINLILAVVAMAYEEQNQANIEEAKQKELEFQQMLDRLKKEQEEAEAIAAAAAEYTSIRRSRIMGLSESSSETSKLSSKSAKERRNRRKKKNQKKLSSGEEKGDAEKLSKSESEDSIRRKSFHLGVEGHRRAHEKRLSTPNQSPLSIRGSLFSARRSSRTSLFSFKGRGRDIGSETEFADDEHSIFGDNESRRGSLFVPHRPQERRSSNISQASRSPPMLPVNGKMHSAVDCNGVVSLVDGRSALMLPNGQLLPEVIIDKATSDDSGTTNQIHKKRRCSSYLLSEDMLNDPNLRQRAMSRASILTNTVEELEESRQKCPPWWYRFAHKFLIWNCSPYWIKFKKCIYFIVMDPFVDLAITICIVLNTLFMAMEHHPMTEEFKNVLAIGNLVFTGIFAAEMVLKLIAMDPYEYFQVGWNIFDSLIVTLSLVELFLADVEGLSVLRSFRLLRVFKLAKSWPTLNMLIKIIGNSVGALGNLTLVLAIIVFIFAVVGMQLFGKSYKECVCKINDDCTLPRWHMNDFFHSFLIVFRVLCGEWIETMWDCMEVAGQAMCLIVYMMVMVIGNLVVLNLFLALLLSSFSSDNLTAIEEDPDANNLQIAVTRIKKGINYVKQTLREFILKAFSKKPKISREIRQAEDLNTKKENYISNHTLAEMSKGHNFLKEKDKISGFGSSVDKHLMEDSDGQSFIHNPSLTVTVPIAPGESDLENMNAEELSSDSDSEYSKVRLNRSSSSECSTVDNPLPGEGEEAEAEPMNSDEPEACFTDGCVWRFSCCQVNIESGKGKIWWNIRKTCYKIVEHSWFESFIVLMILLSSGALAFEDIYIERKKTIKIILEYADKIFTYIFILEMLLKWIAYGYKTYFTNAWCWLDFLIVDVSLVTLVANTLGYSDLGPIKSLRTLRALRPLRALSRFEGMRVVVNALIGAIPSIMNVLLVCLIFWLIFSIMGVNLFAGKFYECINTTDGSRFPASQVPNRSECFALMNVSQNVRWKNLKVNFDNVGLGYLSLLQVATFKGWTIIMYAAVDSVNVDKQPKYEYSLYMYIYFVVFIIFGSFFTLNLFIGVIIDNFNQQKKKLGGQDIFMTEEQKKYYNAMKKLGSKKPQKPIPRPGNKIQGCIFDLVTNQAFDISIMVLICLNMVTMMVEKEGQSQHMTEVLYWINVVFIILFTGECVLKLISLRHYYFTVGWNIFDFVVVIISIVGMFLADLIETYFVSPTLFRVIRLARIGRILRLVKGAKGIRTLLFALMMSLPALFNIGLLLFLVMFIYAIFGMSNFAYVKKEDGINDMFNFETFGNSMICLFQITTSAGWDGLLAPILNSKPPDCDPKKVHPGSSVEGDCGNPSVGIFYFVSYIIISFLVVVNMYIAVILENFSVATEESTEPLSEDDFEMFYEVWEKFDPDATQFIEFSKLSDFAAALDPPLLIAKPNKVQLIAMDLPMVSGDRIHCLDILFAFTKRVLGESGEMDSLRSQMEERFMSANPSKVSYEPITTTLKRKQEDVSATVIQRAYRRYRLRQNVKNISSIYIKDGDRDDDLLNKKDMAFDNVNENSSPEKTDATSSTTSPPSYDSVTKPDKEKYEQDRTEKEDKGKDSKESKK

| Structure (SMILES) | Nav1.4/Nav1.7 [1] | Nav1.5/Nav1.7 [1] | Nav1.4/Nav1.7 ([2]; Nav1.4 over Nav1.7) | Nav1.4/Nav1.7 ([2]; Table 8) |
| --- | --- | --- | --- | --- |
| CC[C@H](C)[C@H](NC(=O)[C@@H](NC(=O)[C@H](CCCCN)NC(=O)[C@H](CCCNC(=N)N)NC(=O)[C@@H]1CSSC[C@@H]2NC(=O)[C@H](C)NC(=O)[C@H](CCCNC(=N)N)NC(=O)[C@H](CCCCN)NC(=O)[C@H](CO)NC(=O)[C@H](CC(=O)O)NC(=O)[C@@H]3CSSC[C@H](NC(=O)[C@H](CC(=O)O)NC(=O)[C@H](CC(C)C)NC(=O)CNC(=O)[C@H](CCC(=O)O)NC(=O)[C@H](CSSC[C@H](NC(=O)[C@@H](N)Cc4ccc(O)cc4)C(=O)N[C@@H](CCC(N)=O)C(=O)N[C@@H](CCCCN)C(=O)N[C@@H](Cc4c[nH]c5ccccc45)C(=O)N[C@@H](CCSC)C(=O)N[C@@H](Cc4c[nH]c5ccccc45)C(=O)N[C@@H]([C@@H](C)O)C(=O)N3)NC2=O)C(=O)N[C@@H](CCCCN)C(=O)N[C@@H](CC(C)C)C(=O)N[C@@H](Cc2c[nH]c3ccccc23)C(=O)N1)[C@@H](C)CC)C(N)=O [compound 115] | 10 | 4 | 53 |  |
| CC[C@H](C)[C@H](NC(=O)[C@@H](NC(=O)[C@H](CCCCN)NC(=O)[C@H](CCCNC(=N)N)NC(=O)[C@@H]1CSSC[C@@H]2NC(=O)[C@H](C)NC(=O)[C@H](CCCNC(=N)N)NC(=O)[C@H](CCCCN)NC(=O)[C@H](CO)NC(=O)[C@H](CC(=O)O)NC(=O)[C@@H]3CSSC[C@H](NC(=O)CNC(=O)[C@H](CC(C)C)NC(=O)CNC(=O)[C@H](CCC(=O)O)NC(=O)[C@H](CSSC[C@H](NC(=O)[C@@H](N)Cc4ccc(O)cc4)C(=O)N[C@@H](CCC(N)=O)C(=O)N[C@@H](CCCCN)C(=O)N[C@@H](Cc4c[nH]c5ccccc45)C(=O)N[C@@H](CCSC)C(=O)N[C@@H](Cc4c[nH]c5ccccc45)C(=O)N[C@@H]([C@@H](C)O)C(=O)N3)NC2=O)C(=O)N[C@@H](CCCCN)C(=O)N[C@@H](CC(C)C)C(=O)N[C@@H](Cc2c[nH]c3ccccc23)C(=O)N1)[C@@H](C)CC)C(N)=O [compound 121] | 25 | 1808 | 29 |  |
| CC[C@H](C)[C@H](NC(=O)[C@@H](NC(=O)[C@H](CCCCN)NC(=O)[C@H](CCCNC(=N)N)NC(=O)[C@@H]1CSSC[C@@H]2NC(=O)[C@H](C)NC(=O)[C@H](CCCNC(=N)N)NC(=O)[C@H](CCCCN)NC(=O)[C@H](CO)NC(=O)[C@H](CC(=O)O)NC(=O)[C@@H]3CSSC[C@H](NC(=O)[C@H](Cc4ccc(O)cc4)NC(=O)[C@H](CC(C)C)NC(=O)CNC(=O)[C@H](CCC(=O)O)NC(=O)[C@H](CSSC[C@H](NC(=O)[C@@H](N)Cc4ccc(O)cc4)C(=O)N[C@@H](CCC(N)=O)C(=O)N[C@@H](CCCCN)C(=O)N[C@@H](Cc4c[nH]c5ccccc45)C(=O)N[C@@H](CCSC)C(=O)N[C@@H](Cc4c[nH]c5ccccc45)C(=O)N[C@@H]([C@@H](C)O)C(=O)N3)NC2=O)C(=O)N[C@@H](CCCCN)C(=O)N[C@@H](CC(C)C)C(=O)N[C@@H](Cc2c[nH]c3ccccc23)C(=O)N1)[C@@H](C)CC)C(N)=O [compound 124] | 266 | >1695 | 43 |  |
| CC[C@H](C)[C@H](NC(=O)[C@@H](NC(=O)[C@H](CCCCN)NC(=O)[C@H](CCCNC(=N)N)NC(=O)[C@@H]1CSSC[C@@H]2NC(=O)[C@H](C)NC(=O)[C@H](CCCNC(=N)N)NC(=O)[C@H](CCCCN)NC(=O)[C@H](CO)NC(=O)[C@H](CC(=O)O)NC(=O)[C@@H]3CSSC[C@H](NC(=O)[C@H](CCC(=O)O)NC(=O)[C@H](CC(C)C)NC(=O)CNC(=O)[C@H](CCC(=O)O)NC(=O)[C@H](CSSC[C@H](NC(=O)[C@@H](N)Cc4ccc(O)cc4)C(=O)N[C@@H](CCC(N)=O)C(=O)N[C@@H](CCCCN)C(=O)N[C@@H](Cc4c[nH]c5ccccc45)C(=O)N[C@@H](CCSC)C(=O)N[C@@H](Cc4c[nH]c5ccccc45)C(=O)N[C@@H]([C@@H](C)O)C(=O)N3)NC2=O)C(=O)N[C@@H](CCCCN)C(=O)N[C@@H](CC(C)C)C(=O)N[C@@H](Cc2c[nH]c3ccccc23)C(=O)N1)C(C)C)C(N)=O [compound 133] | 320 | 1341 | 51 |  |
| CC[C@H](C)[C@H](NC(=O)[C@H](CCCNC(N)=O)NC(=O)[C@H](CCCCN)NC(=O)[C@H](CCCNC(=N)N)NC(=O)[C@@H]1CSSC[C@@H]2NC(=O)[C@H](C)NC(=O)[C@H](CCCNC(=N)N)NC(=O)[C@H](CCCCN)NC(=O)[C@H](CO)NC(=O)[C@H](CC(=O)O)NC(=O)[C@@H]3CSSC[C@H](NC(=O)[C@H](CCC(=O)O)NC(=O)[C@H](CC(C)C)NC(=O)CNC(=O)[C@H](CCC(=O)O)NC(=O)[C@H](CSSC[C@H](NC(=O)[C@@H](N)Cc4ccc(O)cc4)C(=O)N[C@@H](CCC(N)=O)C(=O)N[C@@H](CCCCN)C(=O)N[C@@H](Cc4c[nH]c5ccccc45)C(=O)N[C@@H](CCSC)C(=O)N[C@@H](Cc4c[nH]c5ccccc45)C(=O)N[C@@H]([C@@H](C)O)C(=O)N3)NC2=O)C(=O)N[C@@H](CCCCN)C(=O)N[C@@H](CC(C)C)C(=O)N[C@@H](Cc2c[nH]c3ccccc23)C(=O)N1)C(N)=O [compound 135] | 1075 | >1786 | 46 |  |
| CCC[C@H](NC(=O)[C@H](CCCCN)NC(=O)[C@H](CCCNC(=N)N)NC(=O)[C@@H]1CSSC[C@@H]2NC(=O)[C@H](C)NC(=O)[C@H](CCCNC(=N)N)NC(=O)[C@H](CCCCN)NC(=O)[C@H](CO)NC(=O)[C@H](CC(=O)O)NC(=O)[C@@H]3CSSC[C@H](NC(=O)[C@H](CCC(=O)O)NC(=O)[C@H](CC(C)C)NC(=O)CNC(=O)[C@H](CCC(=O)O)NC(=O)[C@H](CSSC[C@H](NC(=O)[C@@H](N)Cc4ccc(O)cc4)C(=O)N[C@@H](CCC(N)=O)C(=O)N[C@@H](CCCCN)C(=O)N[C@@H](Cc4c[nH]c5ccccc45)C(=O)N[C@@H](CCSC)C(=O)N[C@@H](Cc4c[nH]c5ccccc45)C(=O)N[C@@H]([C@@H](C)O)C(=O)N3)NC2=O)C(=O)N[C@@H](CCCCN)C(=O)N[C@@H](CC(C)C)C(=O)N[C@@H](Cc2c[nH]c3ccccc23)C(=O)N1)C(=O)N[C@H](C(N)=O)[C@@H](C)CC [compound 136] | 405 | 611 | 66 and 34 |  |
| CC[C@H](C)[C@H](NC(=O)[C@H](Cc1ccc(O)cc1)NC(=O)[C@H](CCCCN)NC(=O)[C@H](CCCNC(=N)N)NC(=O)[C@@H]1CSSC[C@@H]2NC(=O)[C@H](C)NC(=O)[C@H](CCCNC(=N)N)NC(=O)[C@H](CCCCN)NC(=O)[C@H](CO)NC(=O)[C@H](CC(=O)O)NC(=O)[C@@H]3CSSC[C@H](NC(=O)[C@H](CCC(=O)O)NC(=O)[C@H](CC(C)C)NC(=O)CNC(=O)[C@H](CCC(=O)O)NC(=O)[C@H](CSSC[C@H](NC(=O)[C@@H](N)Cc4ccc(O)cc4)C(=O)N[C@@H](CCC(N)=O)C(=O)N[C@@H](CCCCN)C(=O)N[C@@H](Cc4c[nH]c5ccccc45)C(=O)N[C@@H](CCSC)C(=O)N[C@@H](Cc4c[nH]c5ccccc45)C(=O)N[C@@H]([C@@H](C)O)C(=O)N3)NC2=O)C(=O)N[C@@H](CCCCN)C(=O)N[C@@H](CC(C)C)C(=O)N[C@@H](Cc2c[nH]c3ccccc23)C(=O)N1)C(N)=O [compound 137] | 1411 | 12667 | 41 |  |
| CC[C@H](C)[C@H](NC(=O)[C@H](Cc1ccc(O)cc1)NC(=O)[C@H](CCCCN)NC(=O)[C@H](CCCNC(=N)N)NC(=O)[C@@H]1CSSC[C@@H]2NC(=O)[C@H](C)NC(=O)[C@H](CCCNC(=N)N)NC(=O)[C@H](CCCCN)NC(=O)[C@H](CO)NC(=O)[C@H](CC(=O)O)NC(=O)[C@@H]3CSSC[C@H](NC(=O)[C@H](CCC(=O)O)NC(=O)[C@H](CC(C)C)NC(=O)CNC(=O)[C@H](CCC(=O)O)NC(=O)[C@H](CSSC[C@H](NC(=O)[C@@H](N)Cc4ccc(O)cc4)C(=O)N[C@@H](CCC(N)=O)C(=O)N[C@@H](CCCCN)C(=O)N[C@@H](Cc4ccc(I)cc4)C(=O)N[C@@H](CCSC)C(=O)N[C@@H](Cc4c[nH]c5ccccc45)C(=O)N[C@@H]([C@@H](C)O)C(=O)N3)NC2=O)C(=O)N[C@@H](CCCCN)C(=O)N[C@@H](CC(C)C)C(=O)N[C@@H](Cc2c[nH]c3ccccc23)C(=O)N1)C(N)=O [compound 192] | 78 | >455 |  | 30 |
| CSCC[C@@H]1NC(=O)[C@H](Cc2c[nH]c3ccccc23)NC(=O)[C@H](CCCCN)NC(=O)[C@H](CCC(N)=O)NC(=O)[C@@H](NC(=O)[C@@H](N)Cc2ccc(O)cc2)CSSC[C@@H]2NC(=O)[C@@H]3CSSC[C@@H](C(=O)N[C@@H](CCCNC(=N)N)C(=O)N[C@@H](CCCCN)C(=O)N[C@@H](Cc4ccc(O)cc4)C(=O)N[C@@H](Cc4cccc5ccccc45)C(N)=O)NC(=O)[C@H](Cc4c[nH]c5ccccc45)NC(=O)[C@H](CC(C)C)NC(=O)[C@H](CCCCN)NC(=O)[C@H](CSSC[C@H](NC(=O)[C@H]([C@@H](C)O)NC(=O)[C@H](Cc4c[nH]c5ccccc45)NC1=O)C(=O)N[C@@H](CC(=O)O)C(=O)N[C@@H](CO)C(=O)N[C@@H](CCCCN)C(=O)N[C@@H](CCCNC(=N)N)C(=O)N[C@@H](C)C(=O)N3)NC(=O)[C@H](CCC(=O)O)NC(=O)[C@H](CC(C)C)NC(=O)CNC(=O)[C@H](CCC(=O)O)NC2=O [compound 232] | 372 | 480 |  | 91 |
| CC[C@H](C)[C@H](NC(=O)[C@H](Cc1ccc(O)cc1)NC(=O)[C@H](CCCCN)NC(=O)[C@H](CCCNC(=N)N)NC(=O)[C@@H]1CSSC[C@@H]2NC(=O)[C@H](C)NC(=O)[C@H](CCCNC(=N)N)NC(=O)[C@H](CCCCN)NC(=O)[C@H](CO)NC(=O)[C@H](CC(=O)O)NC(=O)[C@@H]3CSSC[C@H](NC(=O)[C@H](CCCNC(=N)N)NC(=O)[C@H](CC(C)C)NC(=O)CNC(=O)[C@H](CCC(=O)O)NC(=O)[C@H](CSSC[C@H](NC(=O)[C@@H](N)CCC(=O)O)C(=O)N[C@@H](CCC(N)=O)C(=O)N[C@@H](CCCCN)C(=O)N[C@@H](Cc4c[nH]c5ccccc45)C(=O)N[C@@H](CCSC)C(=O)N[C@@H](Cc4c[nH]c5ccccc45)C(=O)N[C@@H]([C@@H](C)O)C(=O)N3)NC2=O)C(=O)N[C@@H](CCCCN)C(=O)N[C@@H](CC(C)C)C(=O)N[C@@H](Cc2c[nH]c3ccccc23)C(=O)N1)C(N)=O [compound 278] |  |  |  | 16 |
